The test has as its system CD2F1 mice, Lymphoma 8 ip, survival T/C. Put plainly: NCI In Vivo Anticancer Drug Screen. Data for tumor model Lymphoma 8 (intraperitoneal) in CD2F1 (CDF1) mice. The settings on record: higher = longer survival. As to the method:
The antitumor activity of compounds was measured in mice bearing transplantable tumors. Survival or tumor size were measured and the results are expressed as the measurement made in the treated group (T) divided by the measurement made in the vehicle treated control group (C). The tumor model used in this assay is Lymphoma 8 (intraperitoneal) in CD2F1 (CDF1) mice

Setting [1] is: endpoint: survival time, mean or median, dose: 8.0 mg/kg/injection, schedule: Q01DX010 (ip), vehicle: saline.
The mark [2] stands for this setting: endpoint: survival time, mean or median, dose: 16.0 mg/kg/injection, schedule: Q01DX010 (ip), vehicle: saline.
The mark [3] stands for this setting: endpoint: median survival time, dose: 50.0 mg/kg/injection, schedule: Q01DX005 (ip), vehicle: saline.

Each structure is given as a SMILES string. Values joined by “and” are separate entries in the source; they are usually repeats but may differ in a detail not shown here. Identical values can stand only once. Records with an inconclusive call do not appear.

The text below walks through data of PubChem BioAssay AID244 (DTP/NCI, 2004).

With `CC[C@H]1CN2CCc3cc(OC)c(OC)cc3[C@@H]2C[C@@H]1C[C@H]1NCCc2cc(OC)c(OC)cc21`, the T/C reads like this: (endpoint: median survival time, dose: 1.87 mg/kg/injection, schedule: Q04DX003 (ip), vehicle: saline) 107 % of control; (endpoint: median survival time, dose: 2.5 mg/kg/injection, schedule: Q04DX003 (ip), vehicle: saline) 103 % of control; (endpoint: median survival time, dose: 3.7 mg/kg/injection, schedule: Q04DX003 (ip), vehicle: water) 107 % of control; (endpoint: median survival time, dose: 3.75 mg/kg/injection, schedule: Q04DX003 (ip), vehicle: saline) 111 % of control; (endpoint: median survival time, dose: 5.0 mg/kg/injection, schedule: Q04DX003 (ip), vehicle: saline) 100 % of control; (endpoint: median survival time, dose: 7.5 mg/kg/injection, schedule: Q04DX003 (ip), vehicle: saline) 111 % of control. The T/C was 107 % of control (endpoint: median survival time, dose: 7.5 mg/kg/injection, schedule: Q04DX003 (ip), vehicle: water); 100 % of control (endpoint: median survival time, dose: 10.0 mg/kg/injection, schedule: Q04DX003 (ip), vehicle: saline); 118 % of control (endpoint: median survival time, dose: 15.0 mg/kg/injection, schedule: Q04DX003 (ip), vehicle: saline); 107 % of control (endpoint: median survival time, dose: 15.0 mg/kg/injection, schedule: Q04DX003 (ip), vehicle: water); 103 % of control (endpoint: median survival time, dose: 20.0 mg/kg/injection, schedule: Q04DX003 (ip), vehicle: saline).

With `c1ccc(CNc2ncnc3[nH]ncc23)cc1`, the T/C by setting is: under setting [1], 100 % of control; under setting [2], 95 % of control; (endpoint: survival time, mean or median, dose: 32.0 mg/kg/injection, schedule: Q01DX010 (ip), vehicle: saline) 95 % of control and 100 % of control; (endpoint: survival time, mean or median, dose: 64.0 mg/kg/injection, schedule: Q01DX010 (ip), vehicle: saline) 90 % of control.

Take `NC(C/[N+]([O-])=N/O)C(=O)O` (configuration not stated): the T/C is 119 % of control (endpoint: median survival time, dose: 12.5 mg/kg/injection, schedule: Q01DX009 (ip), vehicle: other); 113 % of control (endpoint: median survival time, dose: 12.5 mg/kg/injection, schedule: Q01DX009 (ip), vehicle: saline + alcohol); 116 % of control (endpoint: median survival time, dose: 12.5 mg/kg/injection, schedule: Q01DX009 (ip), vehicle: water); 174 % of control (endpoint: median survival time, dose: 13.2 mg/kg/injection, schedule: Q01DX010 (ip), vehicle: alkali diluted with saline); 197 % of control (endpoint: median survival time, dose: 19.8 mg/kg/injection, schedule: Q01DX010 (ip), vehicle: alkali diluted with saline); 120 % of control (endpoint: median survival time, dose: 25.0 mg/kg/injection, schedule: Q01DX009 (ip), vehicle: other). Besides, the T/C is 116 % of control (endpoint: median survival time, dose: 25.0 mg/kg/injection, schedule: Q01DX009 (ip), vehicle: saline + alcohol); 122 % of control (endpoint: median survival time, dose: 25.0 mg/kg/injection, schedule: Q01DX009 (ip), vehicle: water); 211 % of control (endpoint: median survival time, dose: 29.6 mg/kg/injection, schedule: Q01DX010 (ip), vehicle: alkali diluted with saline); 180 % of control (endpoint: median survival time, dose: 44.4 mg/kg/injection, schedule: Q01DX010 (ip), vehicle: alkali diluted with saline); 98 % of control (endpoint: median survival time, dose: 50.0 mg/kg/injection, schedule: Q01DX009 (ip), vehicle: other); 150 % of control (endpoint: median survival time, dose: 50.0 mg/kg/injection, schedule: Q01DX009 (ip), vehicle: water). Also, the T/C by setting is: (endpoint: median survival time, dose: 66.7 mg/kg/injection, schedule: Q01DX010 (ip), vehicle: alkali diluted with saline) 121 % of control; (endpoint: median survival time, dose: 100.0 mg/kg/injection, schedule: Q01DX009 (ip), vehicle: other) 92 % of control; (endpoint: median survival time, dose: 100.0 mg/kg/injection, schedule: Q01DX009 (ip), vehicle: saline + alcohol) 103 % of control; (endpoint: median survival time, dose: 100.0 mg/kg/injection, schedule: Q01DX009 (ip), vehicle: water) 91 % of control; (endpoint: median survival time, dose: 100.0 mg/kg/injection, schedule: Q01DX010 (ip), vehicle: alkali diluted with saline) 109 % of control.

Take `Nc1nc(=S)c2ncn(C3OC(CO)C(O)C3O)c2[nH]1` (configuration not stated): the T/C (endpoint: survival time, mean or median, dose: 4.0 mg/kg/injection, schedule: Q01DX010 (ip), vehicle: saline) was 150 % of control; the T/C under setting [1] was 118 % of control; the T/C under setting [2] was 86 % of control.

As for `O=NN(CCCl)C(=O)NCCCl`, the T/C reads like this: (endpoint: median survival time, dose: 12.5 mg/kg/injection, schedule: Q01DX001 (ip), vehicle: saline) 153 % of control; (endpoint: median survival time, dose: 12.5 mg/kg/injection, schedule: Q01DX005 (ip), vehicle: saline) 157 % of control; (endpoint: median survival time, dose: 25.0 mg/kg/injection, schedule: Q01DX001 (ip), vehicle: saline) 261 % of control; (endpoint: median survival time, dose: 25.0 mg/kg/injection, schedule: Q01DX005 (ip), vehicle: saline) 265 % of control; under setting [3], 69 % of control; (endpoint: survival time, mean or median, dose: 6.25 mg/kg/injection, schedule: Q01DX010 (ip), vehicle: saline) 160 % of control and 165 % of control. Also, the T/C runs as follows: (endpoint: survival time, mean or median, dose: 12.5 mg/kg/injection, schedule: Q01DX010 (ip), vehicle: saline) 120 % of control; (endpoint: survival time, mean or median, dose: 25.0 mg/kg/injection, schedule: Q01DX010 (ip), vehicle: saline) 90 % of control.

`N=[N+]=CC(=O)OCC(N)C(=O)O` (configuration not stated): under “endpoint: median survival time, dose: 2.0 mg/kg/injection, schedule: Q14DX016 (ip), vehicle: saline”, the T/C is 150 % of control.

Turning to `NC(CS(N)(=O)=O)C(=O)O` (configuration not stated), the T/C is 92 % of control under setting [3]; 92 % of control (endpoint: median survival time, dose: 100.0 mg/kg/injection, schedule: Q01DX005 (ip), vehicle: saline); 96 % of control and 97 % of control (endpoint: median survival time, dose: 200.0 mg/kg/injection, schedule: Q01DX005 (ip), vehicle: saline); 92 % of control and 94 % of control (endpoint: median survival time, dose: 400.0 mg/kg/injection, schedule: Q01DX005 (ip), vehicle: saline).

For the compound `Nc1ncnc2[nH]ncc12`, the T/C (endpoint: survival time, mean or median, dose: 1.5 mg/kg/injection, schedule: Q01DX010 (ip), vehicle: saline) was 90 % of control and 95 % of control; the T/C (endpoint: survival time, mean or median, dose: 3.0 mg/kg/injection, schedule: Q01DX010 (ip), vehicle: saline) is 100 % of control; the T/C (endpoint: survival time, mean or median, dose: 6.0 mg/kg/injection, schedule: Q01DX010 (ip), vehicle: saline) was 90 % of control and 95 % of control; the T/C (endpoint: survival time, mean or median, dose: 12.0 mg/kg/injection, schedule: Q01DX010 (ip), vehicle: saline) was 90 % of control.

Regarding `CN(Cc1cnc2nc(N)nc(N)c2n1)c1ccc(C(=O)N[C@@H](CCC(=O)O)C(=O)O)cc1`, the T/C by setting is: (endpoint: median survival time, dose: 0.75 mg/kg/injection, schedule: Q01DX005 (ip), vehicle: saline) 188 % of control and 195 % of control; (endpoint: median survival time, dose: 1.5 mg/kg/injection, schedule: Q01DX005 (ip), vehicle: saline) 161 % of control and 172 % of control; (endpoint: median survival time, dose: 3.0 mg/kg/injection, schedule: Q01DX005 (ip), vehicle: saline) 53 % of control.

For the compound `NC(=O)c1[nH]nc(C2OC(CO)C(O)C2O)c1O` (configuration not stated), the T/C is 103 % of control (endpoint: median survival time, dose: 2.0 mg/kg/injection, schedule: Q04DX003 (ip), vehicle: saline); 91 % of control (endpoint: median survival time, dose: 4.0 mg/kg/injection, schedule: Q04DX003 (ip), vehicle: saline); 123 % of control (endpoint: median survival time, dose: 8.0 mg/kg/injection, schedule: Q04DX003 (ip), vehicle: saline); 75 % of control (endpoint: median survival time, dose: 16.0 mg/kg/injection, schedule: Q04DX003 (ip), vehicle: saline); 53 % of control (endpoint: median survival time, dose: 32.0 mg/kg/injection, schedule: Q04DX003 (ip), vehicle: saline).

Turning to `NC(=O)C(N)CCO` (configuration not stated), the T/C was 100 % of control and 102 % of control and 94 % of control (endpoint: median survival time, dose: 50.0 mg/kg/injection, schedule: Q01DX009 (ip), vehicle: saline); 97 % of control [middle of 4 runs] (endpoint: median survival time, dose: 100.0 mg/kg/injection, schedule: Q01DX009 (ip), vehicle: saline); 87 % of control and 88 % of control (endpoint: median survival time, dose: 100.0 mg/kg/injection, schedule: Q01DX010 (ip), vehicle: saline); 98 % of control [middle of 4 runs] (endpoint: median survival time, dose: 200.0 mg/kg/injection, schedule: Q01DX009 (ip), vehicle: saline); 91 % of control [middle of 4 runs] (endpoint: median survival time, dose: 200.0 mg/kg/injection, schedule: Q01DX010 (ip), vehicle: saline); 100 % of control [middle of 4 runs] (endpoint: median survival time, dose: 400.0 mg/kg/injection, schedule: Q01DX009 (ip), vehicle: saline). For the same compound, where the note is “endpoint: median survival time, dose: 400.0 mg/kg/injection, schedule: Q01DX010 (ip), vehicle: saline”, the T/C was 95 % of control [middle of 4 runs].
